# B1: anti-human BCMA single chain antibody variable fragment (scFv) (PI61) (scFv)
# scFv: QVQLQESGGGVVQPGRSLRLSCAASGFTFSSYGMHWVRQAPGKGLEWVAVISYDGSNKYYADSVKGRFTISRDNSKNTLYLQMNSLRAEDTAVYYCGGSGYALHDDYYGLDVWGQGTLVTVSSGGGGSGGGGSGGGGSQSALTQPASVSGSPGQSITISCTGTSSDVGGYNYVSWYQQHPGKAPKLMIYDVSNRPSGVSNRFSGSKSGNTASLTISGLQAEDEADYYCSSYTSSSTLYVFGSGTKVTVL
# notes: also called PI61 scFv
# Key:
# BCMA-CAR = test: ARM-BCMA CAR expression kinetics in vitro with or without AZT (FACS); type: cell-based; conditions: AZT 30 μM and 100 μM
# Procedure: In contrast to TM which measures lentiviral integration of the CAR transgene after 8-9 days, in the ARM process, the lentiviral transgene may not be fully integrated and truly expressed within 24 h post lentiviral addition, as lentiviral pseudotransduction could occur (Haas D L, et al., (2000) Mol Ther; 2(1):71-80; Galla M, et al., (2004) Mol Cell; 16(2):309-15). […] Flow cytometry (FACS) analyses were performed to detect CAR surface expression at 24 h, 48 h, 72 h, 96 h and 168 h post T cell activation and transduction with the lentiviral vector. In some cases, ARM-BCMA CAR and an aliquot of this product were frozen down immediately upon harvest for additional characterization in other assays.
# [1] = test system: T cells activated with αCD3αCD28 beads; test: Fold expansion, cell size and viability of cytokine treated T cells after TCR engagement; type: cell-based; conditions: T cells activated with αCD3αCD28 beads at day 0 in the presence of cytokine
# Text: FIG. 12: Fold expansion of cytokine treated T cells after TCR engagement. T cells were activated with αCD3αCD28 beads at day 0 in the presence of indicated cytokines and then monitored for cell numbers at indicated time points.
# T cells were activated with αCD3αCD28 beads at day 0 in the presence of indicated cytokines and then monitored for cell size (FIG. 13A) and viability (FIG. 13B) at indicated time points.
# T cells = test: T cell expansion with cytokines after αCD3/αCD28 bead stimulation; type: cell-based
# Procedure: Previously frozen T cells were thawed and contacted with αCD3/αCD28 dynal beads (cell to bead ratio of 1 to 3) in the presence of indicated cytokines at day 0. From day 3, twice more T cell growth media (RPMI1640, 10% FBS, 2 mM L-glutamin, 100 μM non-essential amino acids, 1 mM sodium pyruvate, 10 mM Hepes, 55 μM β-mercaptoethanol, 10% FBS, and 100 U/ml of penicillin-streptomycin) was added to the plate with indicated cytokines (without cytokine, rhIL2 (50 IU/ml, Novartis), IL6 (long/ml, R&D systems), IL7 (long/ml, Peprotech), IL15 (long/ml, Peprotech), and IL21 (long/ml, Peprotech)) at day 3, 5, 6, 9, 12, 15, and 18.
# Cells were harvested at indicated time points and then stained with live/dead dye (eFluro780, eBioscience), CD3 (BioLegend, clone#: OKT3), CD4 (BioLegend, clone#: OKT4), CD8 (BD Bioscience, clone#: RPA-T8), CD45RO (BioLegend, clone#: UCHL1), CCR7 (BioLegend, clone#: G043H7), CD27 (BD Horizon, clone#: L128), CD127 (BioLegend, clone#: A019D5), CD57 (BioLegend, clone#: HCD57), CD126 (BioLegend, clon#: UV4), and CD130 (R&D Systems, clone#: 28126) antibodies. The cells were acquired by FACS Fortessa and then FlowJo program was used for data analysis.
# [2] = biological target: T1, BCMA (TNFRSF17) of the commercial human plasma membrane protein array (human, UniProt Q02223 1-184, limits assumed); test: commercial human plasma membrane protein array
# T1 sequence (looked up): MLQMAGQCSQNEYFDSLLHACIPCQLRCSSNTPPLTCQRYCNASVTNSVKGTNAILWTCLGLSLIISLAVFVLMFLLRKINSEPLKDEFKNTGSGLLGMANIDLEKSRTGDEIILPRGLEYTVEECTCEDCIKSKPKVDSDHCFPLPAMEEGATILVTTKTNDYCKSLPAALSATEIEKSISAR
molecule,measurement,setting,value
"Cc1cn([C@H]2C[C@H](N=[N+]=[N-])[C@@H](CO)O2)c(=O)[nH]c1=O [AZT, 3′-azido-3′-deoxythymidine]",inhibition of CAR expression,BCMA-CAR,effectively inhibit CAR expression
IL15: cytokine,cell size,[1],did not affect
same,viability,[1],did not affect
same,expansion of IL6Rβ expressing cells,T cells,enhanced expansion of IL6Rβ expressing cells
same,T cell expansion,T cells; αCD3/αCD28 bead stimulated T cells plus cytokine,showing the greatest enhancement
B1,binding result,[2],binds
